In US9421209B2, “Kinase modulators” (Rhizen Pharmaceuticals SA, priority 2009, dated 2016) one finds inhibition, IC50 and melting point data, which are given here for 16 compounds.

The target of one data set is P110β (Homo sapiens, UniProt P42338). In words: Fluorescent (HTRF) determination of PI3K enzyme activity, β isoform. The data set is classed as biochemical. The procedure, abridged: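 Recombinant human PI3K isoforms incubated 10 min at room temperature with inhibitor and 1.38 μM PIP2 (10 mM MgCl2, 5 mM DTT), then 30 min after adding 400 μM ATP stock. PIP3 formation detected by HTRF (665/620 nm); % inhibition versus blank and enzyme controls gives IC50.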
Chain of P110β (P42338 whole entry, canonical isoform): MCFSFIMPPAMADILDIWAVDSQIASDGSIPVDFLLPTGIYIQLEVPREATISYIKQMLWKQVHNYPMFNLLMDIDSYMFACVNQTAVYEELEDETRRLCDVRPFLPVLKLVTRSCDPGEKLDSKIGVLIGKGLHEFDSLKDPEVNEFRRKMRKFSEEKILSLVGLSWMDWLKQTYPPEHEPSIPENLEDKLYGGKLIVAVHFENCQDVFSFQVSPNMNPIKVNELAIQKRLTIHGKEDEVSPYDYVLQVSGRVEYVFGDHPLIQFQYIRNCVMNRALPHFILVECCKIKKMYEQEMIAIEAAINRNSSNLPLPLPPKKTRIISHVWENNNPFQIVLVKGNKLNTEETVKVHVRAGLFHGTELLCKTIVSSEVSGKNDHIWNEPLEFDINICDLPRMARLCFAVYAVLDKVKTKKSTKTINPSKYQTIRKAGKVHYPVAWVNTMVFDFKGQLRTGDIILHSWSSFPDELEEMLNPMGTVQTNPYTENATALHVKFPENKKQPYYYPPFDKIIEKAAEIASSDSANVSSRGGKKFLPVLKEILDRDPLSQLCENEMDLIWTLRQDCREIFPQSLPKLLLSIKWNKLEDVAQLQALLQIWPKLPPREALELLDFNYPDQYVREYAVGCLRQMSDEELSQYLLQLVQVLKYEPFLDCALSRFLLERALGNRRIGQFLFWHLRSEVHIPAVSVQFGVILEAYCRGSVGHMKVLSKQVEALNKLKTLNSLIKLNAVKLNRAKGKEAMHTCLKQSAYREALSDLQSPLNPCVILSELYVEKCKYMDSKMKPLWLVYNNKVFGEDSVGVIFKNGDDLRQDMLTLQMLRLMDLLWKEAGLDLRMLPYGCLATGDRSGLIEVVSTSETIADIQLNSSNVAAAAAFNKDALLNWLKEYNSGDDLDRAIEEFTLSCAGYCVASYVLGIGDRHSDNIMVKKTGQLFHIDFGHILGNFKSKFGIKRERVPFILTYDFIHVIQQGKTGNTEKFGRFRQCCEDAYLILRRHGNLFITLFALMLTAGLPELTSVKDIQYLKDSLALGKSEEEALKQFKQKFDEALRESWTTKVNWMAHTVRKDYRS
Chain of P110β (P27986 whole entry partner, canonical isoform): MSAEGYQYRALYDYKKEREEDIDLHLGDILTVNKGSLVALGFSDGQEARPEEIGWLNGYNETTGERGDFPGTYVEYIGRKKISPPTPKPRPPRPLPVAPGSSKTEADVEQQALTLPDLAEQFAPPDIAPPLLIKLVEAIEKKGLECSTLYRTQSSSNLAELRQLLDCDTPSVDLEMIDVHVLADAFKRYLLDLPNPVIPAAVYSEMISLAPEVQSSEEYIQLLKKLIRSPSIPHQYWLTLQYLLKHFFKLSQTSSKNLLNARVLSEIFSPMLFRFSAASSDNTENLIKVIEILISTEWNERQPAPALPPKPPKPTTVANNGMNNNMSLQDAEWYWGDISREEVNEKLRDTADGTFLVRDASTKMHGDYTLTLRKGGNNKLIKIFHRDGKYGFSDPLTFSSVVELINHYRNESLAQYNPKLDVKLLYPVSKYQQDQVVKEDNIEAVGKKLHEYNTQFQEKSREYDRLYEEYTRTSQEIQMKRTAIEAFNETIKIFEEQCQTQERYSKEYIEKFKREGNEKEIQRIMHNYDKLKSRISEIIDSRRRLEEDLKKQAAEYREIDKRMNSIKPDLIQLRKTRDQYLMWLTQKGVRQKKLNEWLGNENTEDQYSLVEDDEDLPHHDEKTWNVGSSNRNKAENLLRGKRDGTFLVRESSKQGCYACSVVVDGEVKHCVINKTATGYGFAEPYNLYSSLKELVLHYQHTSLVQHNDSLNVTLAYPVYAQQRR
On the technique in general: In TR-FRET formats the signal depends on donor and acceptor labels being close together.

The next data set has as its target P110α (Homo sapiens, UniProt P42336). The data set is described as follows: Fluorescent (HTRF) determination of PI3K enzyme activity, α isoform. The data set is classed as biochemical. An excerpt: (§1) Assay 1: Fluorescent determination of PI3Kinase Kinase enzyme activity
(§2) Phosphoinositide 3 kinases (PI3K) belong to a class of lipid kinases that play a critical role in the regulation of several key cellular processes. The PI3K are capable of phosphorylating the 3-hydroxy position of phosphoinositols thereby generating second messengers involved in downstream signalling events. The homogenous time resolved fluorescence (HTRF) assay allows detection of 3,4,5-triphosphate (PIP3) formed as a result of phosphorylation of phosphotidylinositol 4,5-biphosphate (PIP2) by PI3K isoforms such as α, β, γ or δ.
(§3) PI3K isoform activity for α, β, γ or δ was determined using a PI3K human HTRF™ Assay Kit (Millipore, Billerica, Mass.) with modifications. All incubations were carried out at room temperature. Briefly, 0.5 μl of 40× inhibitor (in 100% DMSO) or 100% DMSO were added to each well of a 384-well black plate (Greiner Bio-One, Monroe, N.C.) containing 14.5 μl 1× reaction buffer/PIP2 (10 mM MgCl2, 5 mM DTT, 1.38 μM PIP2) mix with or without enzyme and incubated for 10 min. After the initial incubation, 5 μl/well of 400 μM ATP was added and incubated for an additional 30 minutes. Reaction was terminated by adding 5 μl/well stop solution (Millipore, Billerica, Mass.). Five microliters of detection mix (Millipore, Billerica, Mass.) were then added to each well and was incubated for 6-18 h in the dark. HRTF ratio was measured on a microplate reader (BMG Labtech., Germany) at an excitation wavelength of 337 nm and emission wavelengths of 665 and 620 nm with an integration time of […]. Data were analyzed using Graphpad Prism (Graphpad software; San Diego Calif.) for IC50 determination. Percent inhibition was calculated based on the values for the blank and enzyme controls. The results are provided below in Table 2 & 3.

The target in the next data set is P110 δ/Pi3K δ (Homo sapiens, UniProt O00329). The data set is described as follows: Fluorescent (HTRF) determination of PI3K enzyme activity, δ isoform. The data set is classed as biochemical. Also noted: inhibition: dose or concentration left out as unconfirmed. An outline of the steps: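 HTRF kit detecting PIP3 formed from PIP2 by human PI3Kδ, at room temperature. Reaction started with 400 μM ATP (addition concentration) for 30 min, then stopped, and detection mix incubated 6–18 h in the dark. Percent inhibition taken against blank and enzyme controls, and IC50 fitted.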
Chain of P110 δ/Pi3K δ (O00329 whole entry, canonical isoform): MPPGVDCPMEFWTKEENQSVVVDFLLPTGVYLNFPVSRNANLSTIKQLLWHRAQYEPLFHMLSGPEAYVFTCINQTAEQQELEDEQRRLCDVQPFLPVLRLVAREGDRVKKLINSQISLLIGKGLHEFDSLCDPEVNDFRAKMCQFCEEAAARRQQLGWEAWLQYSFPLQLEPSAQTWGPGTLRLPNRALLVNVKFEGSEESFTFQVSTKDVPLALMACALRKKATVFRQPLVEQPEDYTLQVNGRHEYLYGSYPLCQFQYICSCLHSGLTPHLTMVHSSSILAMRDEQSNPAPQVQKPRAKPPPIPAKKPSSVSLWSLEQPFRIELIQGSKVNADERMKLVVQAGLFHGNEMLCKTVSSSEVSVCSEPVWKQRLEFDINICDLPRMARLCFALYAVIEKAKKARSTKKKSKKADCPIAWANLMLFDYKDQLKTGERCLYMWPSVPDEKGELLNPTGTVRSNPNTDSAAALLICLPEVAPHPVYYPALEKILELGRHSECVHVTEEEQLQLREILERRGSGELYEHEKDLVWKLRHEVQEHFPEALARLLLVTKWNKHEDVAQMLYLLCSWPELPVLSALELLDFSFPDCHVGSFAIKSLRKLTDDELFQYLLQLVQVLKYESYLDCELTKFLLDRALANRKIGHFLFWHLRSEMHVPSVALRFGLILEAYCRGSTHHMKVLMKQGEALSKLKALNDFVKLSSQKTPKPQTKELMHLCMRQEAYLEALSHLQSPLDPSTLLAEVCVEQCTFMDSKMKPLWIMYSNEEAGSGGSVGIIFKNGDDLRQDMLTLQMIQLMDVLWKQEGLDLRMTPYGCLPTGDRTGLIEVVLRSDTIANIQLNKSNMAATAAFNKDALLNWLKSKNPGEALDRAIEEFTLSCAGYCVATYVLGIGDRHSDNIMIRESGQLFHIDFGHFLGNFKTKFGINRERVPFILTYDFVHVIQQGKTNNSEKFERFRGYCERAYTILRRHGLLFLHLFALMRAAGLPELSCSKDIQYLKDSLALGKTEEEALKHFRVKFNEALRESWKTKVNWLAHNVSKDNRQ
Chain of P110 δ/Pi3K δ (P27986 whole entry partner, canonical isoform): as the sequence (P27986 whole entry partner, canonical isoform) above

The target of another data set is P110γ (Homo sapiens, UniProt P48736). In words: Fluorescent (HTRF) determination of PI3K enzyme activity, γ isoform. Type of data set: biochemical.
Chain of P110γ (P48736 whole entry, canonical isoform): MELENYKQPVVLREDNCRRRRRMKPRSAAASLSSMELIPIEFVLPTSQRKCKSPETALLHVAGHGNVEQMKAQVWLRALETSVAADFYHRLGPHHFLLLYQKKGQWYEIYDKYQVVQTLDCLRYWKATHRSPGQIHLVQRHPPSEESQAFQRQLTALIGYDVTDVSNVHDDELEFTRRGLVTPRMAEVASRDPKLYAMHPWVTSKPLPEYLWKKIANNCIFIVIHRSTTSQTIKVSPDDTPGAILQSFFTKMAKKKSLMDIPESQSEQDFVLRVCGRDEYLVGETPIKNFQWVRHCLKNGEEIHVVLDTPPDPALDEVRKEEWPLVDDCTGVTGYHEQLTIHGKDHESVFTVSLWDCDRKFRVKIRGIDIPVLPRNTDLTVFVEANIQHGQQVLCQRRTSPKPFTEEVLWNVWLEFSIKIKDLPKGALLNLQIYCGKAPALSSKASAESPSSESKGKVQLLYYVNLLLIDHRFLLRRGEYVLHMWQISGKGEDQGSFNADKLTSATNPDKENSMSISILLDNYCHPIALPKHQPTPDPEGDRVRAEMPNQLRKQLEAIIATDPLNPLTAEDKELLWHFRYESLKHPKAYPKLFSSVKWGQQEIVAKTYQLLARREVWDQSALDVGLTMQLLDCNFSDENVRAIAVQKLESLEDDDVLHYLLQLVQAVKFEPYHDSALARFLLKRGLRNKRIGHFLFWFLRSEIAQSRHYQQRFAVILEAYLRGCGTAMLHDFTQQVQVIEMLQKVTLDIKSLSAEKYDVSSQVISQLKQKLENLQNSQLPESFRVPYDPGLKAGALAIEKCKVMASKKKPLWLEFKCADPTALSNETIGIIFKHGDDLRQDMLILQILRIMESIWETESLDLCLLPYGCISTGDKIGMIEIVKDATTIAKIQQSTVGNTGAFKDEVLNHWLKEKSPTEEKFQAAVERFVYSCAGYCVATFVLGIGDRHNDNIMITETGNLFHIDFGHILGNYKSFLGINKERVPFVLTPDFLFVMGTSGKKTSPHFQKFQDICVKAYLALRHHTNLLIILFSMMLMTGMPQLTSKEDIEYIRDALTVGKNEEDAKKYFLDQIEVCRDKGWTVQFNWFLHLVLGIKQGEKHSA
Source text: as §1, §2, §3

The mark [1] stands for this setting: read-out: P110 δ/ Pi3K δ IC 50 nM.
The mark [2] stands for this setting: read-out: P110 δ/Pi3K δ IC 50 nM.

By inhibition is commonly meant the share of the control response that was lost under treatment. As usually defined, the melting point is the temperature, or range, at which the solid turns liquid.

Read-outs that look alike come from different tables or passages of the source.

Chain of P110α (P42336 whole entry, canonical isoform): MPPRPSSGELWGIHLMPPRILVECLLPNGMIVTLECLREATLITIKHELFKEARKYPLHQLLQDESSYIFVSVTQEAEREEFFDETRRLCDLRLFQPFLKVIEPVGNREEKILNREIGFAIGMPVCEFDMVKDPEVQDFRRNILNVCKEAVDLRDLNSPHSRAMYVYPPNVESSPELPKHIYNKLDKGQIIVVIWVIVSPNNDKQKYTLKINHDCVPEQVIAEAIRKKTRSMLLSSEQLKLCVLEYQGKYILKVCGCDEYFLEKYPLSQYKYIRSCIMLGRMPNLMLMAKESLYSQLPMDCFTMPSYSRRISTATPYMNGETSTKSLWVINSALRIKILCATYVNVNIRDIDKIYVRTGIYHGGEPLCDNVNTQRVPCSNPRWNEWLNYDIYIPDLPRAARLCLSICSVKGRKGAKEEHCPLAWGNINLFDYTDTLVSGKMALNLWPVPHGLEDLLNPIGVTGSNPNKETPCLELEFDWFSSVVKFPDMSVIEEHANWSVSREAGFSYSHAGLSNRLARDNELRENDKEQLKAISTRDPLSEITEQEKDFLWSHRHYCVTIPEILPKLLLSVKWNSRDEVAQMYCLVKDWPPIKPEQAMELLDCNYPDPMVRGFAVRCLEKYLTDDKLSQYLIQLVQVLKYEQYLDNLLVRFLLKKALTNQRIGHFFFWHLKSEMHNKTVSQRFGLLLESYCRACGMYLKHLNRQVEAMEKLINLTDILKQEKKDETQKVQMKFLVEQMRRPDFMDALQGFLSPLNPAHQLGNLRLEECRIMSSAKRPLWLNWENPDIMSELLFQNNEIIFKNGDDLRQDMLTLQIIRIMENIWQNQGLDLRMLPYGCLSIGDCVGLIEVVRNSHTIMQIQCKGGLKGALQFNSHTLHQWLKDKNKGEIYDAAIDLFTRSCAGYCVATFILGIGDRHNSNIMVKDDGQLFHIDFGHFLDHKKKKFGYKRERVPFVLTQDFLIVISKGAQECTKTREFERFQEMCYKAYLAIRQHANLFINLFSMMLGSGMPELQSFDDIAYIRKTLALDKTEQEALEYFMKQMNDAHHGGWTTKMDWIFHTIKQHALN
Chain of P110α (P27986 whole entry partner, canonical isoform): as the sequence (P27986 whole entry partner, canonical isoform) above

With `Cc1n[nH]c2cc(-c3nn([C@H](C)c4oc5ccccc5c(=O)c4-c4cccc(F)c4)c4ncnc(N)c34)ccc12` (single isomer, unassigned) [Example 128, (+)-2-(1-(4-amino-3-(3-methyl-1H-indazol-6-yl)-1H-pyrazolo[3,4-d]pyrimidin-1-yl)ethyl)-3-(3-fluorophenyl)-4H-chromen-4-one], the inhibition at 1 µM on P110β was < 25%; against P110α it was < 25%; at P110γ, 25 to 50%. The IC50 on P110 δ/Pi3K δ (setting [1]) was < 250 nM.
For `CC(c1oc2ccccc2c(=O)c1-c1cccc(F)c1)n1cnc2c(N)ncnc21` (stereo not drawn) [Example 32, 2-(1-(6-Amino-9H-purin-9-yl)ethyl)-3-(3-fluorophenyl)-4H-chromen-4-one], the inhibition at 1 µM was < 25% against P110β, < 25% on P110α, 50 to 100% against P110 δ/Pi3K δ and < 25% against P110γ. For the same compound, at P110 δ/Pi3K δ (setting [2]), the IC50 is < 250 nM.
As for `CC(c1oc2ccccc2c(=O)c1-c1ccccc1)n1nc(-c2cccc(O)c2)c2c(N)ncnc21` (stereo not drawn) [Example 42, 2-(1-(4-Amino-3-(3-hydroxyphenyl)-1H-pyrazolo[3,4-d]pyrimidin-1-yl)ethyl)-3-phenyl-4H-chromen-4-one], the melting point was in the range of 212 to 216 °C. Moreover, the inhibition at 1 µM against P110β is 25 to 50%. For the same compound, the inhibition at 1 µM at P110α was < 25%. On P110 δ/Pi3K δ, this compound showed an inhibition at 1 µM of 50 to 100%. Besides, the IC50 on P110 δ/Pi3K δ (setting [2]) was < 250 nM. For the same compound, the inhibition at 1 µM at P110γ is < 25%.
As for `COc1cccc(-c2nn(C(C)c3oc4ccccc4c(=O)c3-c3cccc(F)c3)c3ncnc(N)c23)c1` (stereo not drawn) [Example 51, 2-(1-(4-amino-3-(3-methoxyphenyl)-1H-pyrazolo[3,4-d]pyrimidin-1-yl)ethyl)-3-(3-fluorophenyl)-4H-chromen-4-one], the results for the inhibition at 1 µM against P110β, on P110α and against P110γ were 50 to 100%, < 25% and < 25%, respectively.
Regarding `C[C@H](Nc1ncnc2[nH]cnc12)c1oc2ccc(F)cc2c(=O)c1-c1cccc(F)c1` [Example 74, (S)-2-(1-(9H-purin-6-ylamino)ethyl)-6-fluoro-3-(3-fluorophenyl)-4H-chromen-4-one], the melting point is 203 to 206 °C. In addition, at P110β, the inhibition at 1 µM is 25 to 50%. In addition, on P110 δ/Pi3K δ, the inhibition at 1 µM fell in the range of 50 to 100%. The IC50 on P110 δ/Pi3K δ (setting [2]) was < 250 nM. At P110γ, this compound gave an inhibition at 1 µM of 25 to 50%.
Take `Cc1n[nH]c2cc(-c3nn(C(C)c4oc5ccc(F)cc5c(=O)c4-c4ccccc4)c4ncnc(N)c34)ccc12` (stereo not drawn) [Example 105, 2-(1-(4-amino-3-(3-methyl-1H-indazol-6-yl)-1H-pyrazolo[3,4-d]pyrimidin-1-yl)ethyl)-6-fluoro-3-phenyl-4H-chromen-4-one]: the melting point lay within 253 to 255 °C. The same compound yielded an inhibition at 1 µM on P110β of 50 to 100%. In addition, on P110 δ/Pi3K δ, the inhibition lay in the range of 50 to 100%. Moreover, on P110 δ/Pi3K δ (setting [1]), the IC50 was < 250 nM. This compound showed an inhibition at 1 µM against P110γ of 50 to 100%.
The compound `Cc1n[nH]c2ccc(-c3nn(C(C)c4oc5ccccc5c(=O)c4-c4cccc(F)c4)c4ncnc(N)c34)cc12` (stereo not drawn) [Example 106, 2-(1-(4-amino-3-(3-methyl-1H-indazol-5-yl)-1H-pyrazolo[3,4-d]pyrimidin-1-yl)ethyl)-3-(3-fluorophenyl)-4H-chromen-4-one] returned a melting point of 254 to 256 °C. Also, the inhibition at 1 µM on P110β was < 25%. The inhibition on P110 δ/Pi3K δ was < 50%. At P110γ, the inhibition at 1 µM fell in the range of 25 to 50%.
Compound `Cc1n[nH]c2cc(-c3nn(C(C)c4oc5ccc(F)cc5c(=O)c4-c4cccc(F)c4)c4ncnc(N)c34)ccc12` (stereo not drawn) [Example 108, 2-(1-(4-amino-3-(3-methyl-1H-indazol-6-yl)-1H-pyrazolo[3,4-d]pyrimidin-1-yl)ethyl)-6-fluoro-3-(3-fluorophenyl)-4H-chromen-4-one] displayed a melting point of 234 to 236 °C. Further, the inhibition at 1 µM on P110β was in the range of 25 to 50%. For the same compound, the inhibition at P110 δ/Pi3K δ lay in the range of 50 to 100%. Moreover, at P110 δ/Pi3K δ (setting [1]), the IC50 is < 250 nM. Further, the inhibition at 1 µM against P110γ was in the range of 50 to 100%.
As for `CCc1n[nH]c2cc(-c3nn(C(C)c4oc5ccccc5c(=O)c4-c4cccc(F)c4)c4ncnc(N)c34)ccc12` (stereo not drawn) [Example 110, 2-(1-(4-amino-3-(3-ethyl-1H-indazol-6-yl)-1H-pyrazolo[3,4-d]pyrimidin-1-yl)ethyl)-3-(3-fluorophenyl)-4H-chromen-4-one], the melting point fell in the range of 270 to 273 °C. In addition, at P110β, the inhibition at 1 µM is < 25%. The compound also registered an inhibition at P110 δ/Pi3K δ of 50 to 100%. In addition, the inhibition at 1 µM on P110γ was 50 to 100%.
`COc1c(C)cc(-c2nn(C(C)c3oc4ccccc4c(=O)c3-c3cccc(F)c3)c3ncnc(N)c23)cc1C` (stereo not drawn) [Example 131, 2-(1-(4-amino-3-(4-methoxy-3,5-dimethylphenyl)-1H-pyrazolo[3,4-d]pyrimidin-1-yl)ethyl)-3-(3-fluorophenyl)-4H-chromen-4-one]: the melting point is 234 to 236 °C. In addition, the inhibition at 1 µM against P110β is < 25%. This compound had an inhibition at 1 µM against P110α of 25 to 50%. The inhibition on P110 δ/Pi3K δ was < 50%.
Regarding `CC(c1oc2ccccc2c(=O)c1-c1cccc(F)c1)n1nc(-c2ccc3c(c2)OCCO3)c2c(N)ncnc21` (stereo not drawn) [Example 133, 2-(1-(4-amino-3-(2,3-dihydrobenzo[b][1,4]dioxin-6-yl)-1H-pyrazolo[3,4-d]pyrimidin-1-yl)ethyl)-3-(3-fluorophenyl)-4H-chromen-4-one], the melting point lay in the range of 225 to 226 °C. Moreover, the inhibition at 1 µM at P110β fell in the range of 50 to 100%. The inhibition at 1 µM against P110α was < 25%. Moreover, the inhibition against P110 δ/Pi3K δ is < 50%.
`CC(c1oc2ccccc2c(=O)c1-c1cccc(F)c1)n1nc(-c2ccc(Oc3ccccc3)cc2)c2c(N)ncnc21` (stereo not drawn) [Example 139, 2-(1-(4-amino-3-(4-phenoxyphenyl)-1H-pyrazolo[3,4-d]pyrimidin-1-yl)ethyl)-3-(3-fluorophenyl)-4H-chromen-4-one] came in with a melting point of 218 to 220 °C. The same compound showed an inhibition at 1 µM on P110β of 25 to 50%. For the same compound, the inhibition at P110 δ/Pi3K δ is < 50%. Also, the inhibition at 1 µM at P110γ lay within 25 to 50%.
Consider `CC(c1oc2ccccc2c(=O)c1-c1cccc(F)c1)n1nc(-c2ccc(OCc3ccccc3)c(Cl)c2)c2c(N)ncnc21` (stereo not drawn) [Example 140, 2-(1-(4-amino-3-(4-(benzyloxy)-3-chlorophenyl)-1H-pyrazolo[3,4-d]pyrimidin-1-yl)ethyl)-3-(3-fluorophenyl)-4H-chromen-4-one], for which the melting point was in the range of 214 to 216 °C. This compound also had an inhibition at 1 µM at P110β of 25 to 50%. In addition, at P110 δ/Pi3K δ, the inhibition is < 50%. The inhibition at 1 µM against P110γ was in the range of 25 to 50%.
For the compound `CC(C)Oc1ccc(-c2nn(C(C)c3oc4ccccc4c(=O)c3-c3cccc(F)c3)c3ncnc(N)c23)cc1Cl` (stereo not drawn) [Example 141, 2-(1-(4-amino-3-(3-chloro-4-isopropoxyphenyl)-1H-pyrazolo[3,4-d]pyrimidin-1-yl)ethyl)-3-(3-fluorophenyl)-4H-chromen-4-one], the melting point fell in the range of 198 to 200 °C. This compound also displayed an inhibition at 1 µM against P110β of 25 to 50%. The inhibition against P110 δ/Pi3K δ lay within 50 to 100%. In addition, on P110γ, the inhibition at 1 µM was 50 to 100%.
With `CC(c1oc2ccccc2c(=O)c1-c1cccc(F)c1)n1nc(-c2cccc(N(C)C)c2)c2c(N)ncnc21` (stereo not drawn) [Example 142, 2-(1-(4-amino-3-(3-(dimethylamino)phenyl)-1H-pyrazolo[3,4-d]pyrimidin-1-yl)ethyl)-3-(3-fluorophenyl)-4H-chromen-4-one], the melting point lay in the range of 218 to 220 °C. The inhibition at 1 µM on P110β was 25 to 50%. The inhibition at P110 δ/Pi3K δ was < 50%. Besides, on P110γ, the inhibition at 1 µM is < 25%.
On the same counts, the results for `CCOc1ccc(-c2nn(C(C)c3oc4ccccc4c(=O)c3-c3cccc(F)c3)c3ncnc(N)c23)cc1F` (stereo not drawn) [Example 143, 2-(1-(4-amino-3-(4-ethoxy-3-fluorophenyl)-1H-pyrazolo[3,4-d]pyrimidin-1-yl)ethyl)-3-(3-fluorophenyl)-4H-chromen-4-one] are 216 to 218 °C, 25 to 50%, < 50% and < 25%.
